According to ChEMBL document CHEMBL1144805, “The cephalostatin way of apoptosis” (2008):

Tests used:
OVCAR-4 = assay: Cytotoxicity against human OVCAR4 cells; type: functional
IGROV-1 = assay: Cytotoxicity against human IGROV1 cells; type: functional
MDA-MB-435 = assay: Cytotoxicity against human MDA-MB-435 cells; type: functional
HOP-62 = assay: Cytotoxicity against human HOP62 cells; type: functional
HOP-18 = assay: Cytotoxicity against human HOP18 cells; type: functional
UO-31 = assay: Cytotoxicity against human UO31 cells; type: functional
[1] = Cytotoxicity against human TK20 cells; type: functional
MCF7 = assay: Cytotoxicity against human MCF7 cells; type: functional
SR = assay: Cytotoxicity against human SR cells; type: functional
SNB-19 = assay: Cytotoxicity against human SNB19 cells; type: functional
NCI-H226 = assay: Cytotoxicity against human NCI-H226 cells; type: functional
SK-MEL-28 = assay: Cytotoxicity against human SK-MEL-28 cells; type: functional
[2] = Cytotoxicity against human […] cells; type: functional
KM-20L2 = assay: Cytotoxicity against human KM20L2 cells; type: functional
NCI-H460 = assay: Cytotoxicity against human NCI-H460 cells; type: functional
HCT-15 = assay: Cytotoxicity against human HCT15 cells; type: functional
U-251 = assay: Cytotoxicity against human U251 cells; type: functional
NCI-H23 = assay: Cytotoxicity against human NCI-H23 cells; type: functional
OVCAR-5 = assay: Cytotoxicity against human OVCAR5 cells; type: functional
EKVX = assay: Cytotoxicity against human EKVX cells; type: functional
OVCAR-8 = assay: Cytotoxicity against human OVCAR8 cells; type: functional
HCT-116 = assay: Cytotoxicity against human HCT116 cells; type: functional
CCRF-CEM = assay: Cytotoxicity against human CCRF-CEM cells; type: functional
MOLT-4 = assay: Cytotoxicity against human MOLT4 cells; type: functional
SK-MEL-5 = assay: Cytotoxicity against human SK-MEL-5 cells; type: functional
ACHN = assay: Cytotoxicity against human ACHN cells; type: functional
XF498 = assay: Cytotoxicity against human XF498 cells; type: functional
MDA-MB-231 = assay: Cytotoxicity against human MDA-MB-231 cells; type: functional
DU-145 = assay: Cytotoxicity against human DU145 cells; type: functional
BT-549 = assay: Cytotoxicity against human BT549 cells; type: functional
RXF 393 = assay: Cytotoxicity against human RXF393 cells; type: functional
RPMI-8226 = assay: Cytotoxicity against human RPMI8226 cells; type: functional
MDA-N = assay: Cytotoxicity against human MDAN cells; type: functional
HT-29 = assay: Cytotoxicity against human HT29 cells; type: functional
M19-MEL = assay: Cytotoxicity against human M19-MEL cells; type: functional
K562 = assay: Cytotoxicity against human K562 cells; type: functional
Malme-3M = assay: Cytotoxicity against human MALME3M cells; type: functional
PC-3 = assay: Cytotoxicity against human PC3 cells; type: functional
[3] = Cytotoxicity against human DMS144 cells; type: functional
HOP-92 = assay: Cytotoxicity against human HOP92 cells; type: functional
UACC-62 = assay: Cytotoxicity against human UACC62 cells; type: functional
T47D = assay: Cytotoxicity against human T47D cells; type: functional
OVCAR-3 = assay: Cytotoxicity against human OVCAR-3 cells; type: functional
M14 = assay: Cytotoxicity against human M14 cells; type: functional
SF-268 = assay: Cytotoxicity against human SF268 cells; type: functional
SK-MEL-2 = assay: Cytotoxicity against human SK-MEL-2 cells; type: functional
DMS-273 = assay: Cytotoxicity against human DMS273 cells; type: functional
LOX IMVI = assay: Cytotoxicity against human LOXIMVI cells; type: functional
CAKI-1 = assay: Cytotoxicity against human CAKI1 cells; type: functional
A549 = assay: Cytotoxicity against human A549 cells; type: functional
Hs-578T = assay: Cytotoxicity against human HS578T cells; type: functional
[4] = Cytotoxicity against human LXFL529 cells; type: functional; conditions: LXFL 529
SNB-75 = assay: Cytotoxicity against human SNB75 cells; type: functional
NCI-H522 = assay: Cytotoxicity against human NCI-H522 cells; type: functional
[5] = Cytotoxicity against human 786-O cells; type: functional; conditions: 786-0
[6] = Cytotoxicity against human RXF631 cells; type: functional; conditions: RXF 631
SW-620 = assay: Cytotoxicity against human SW620 cells; type: functional
SF-539 = assay: Cytotoxicity against human SF539 cells; type: functional
NCI/ADR-RES = assay: Cytotoxicity against human NCI/ADR-RES cells; type: functional
SN12C = assay: Cytotoxicity against human SN12C cells; type: functional
KM12 = assay: Cytotoxicity against human KM12 cells; type: functional
SF-295 = assay: Cytotoxicity against human SF295 cells; type: functional
COLO 205 = assay: Cytotoxicity against human COLO205 cells; type: functional
[7] = Cytotoxicity against human HL60(TB) cells; type: functional, HL-60(TB); conditions: HL-60
UACC-257 = assay: Cytotoxicity against human UACC257 cells; type: functional
SNB-78 = assay: Cytotoxicity against human SNB78 cells; type: functional
NCI-H322M = assay: Cytotoxicity against human NCI-H322M cells; type: functional
SK-OV-3 = assay: Cytotoxicity against human SK-OV-3 cells; type: functional
DLD-1 = assay: Cytotoxicity against human DLD1 cells; type: functional
[8] = Cytotoxicity against human HCC2996 cells; type: functional

With `C[C@@H]1[C@]2(O[C@H]3C=C4[C@@H]5CC[C@H]6Cc7nc8c(nc7C[C@]6(C)[C@H]5C[C@@H](O)[C@]4(C)[C@]31O)C[C@@H]1CC[C@H]3C4=CC[C@@H]5[C@H](C)[C@@]6(OC[C@]45C(=O)C[C@@H]3[C@@]1(C)C8)OC(C)(C)C[C@H]6O)O[C@](C)(CO)C[C@H]2O` [CEPHALOSTATIN 1] the GI50 (OVCAR-4) was 38.9 nM, the GI50 (IGROV-1) was 3.98 nM and the GI50 (MDA-MB-435) was 0.813 nM. For the same molecule, the GI50 (HOP-62) was 0.24 nM, the GI50 (HOP-18) was 72.4 nM and the GI50 (UO-31) was 0.617 nM. The GI50 [1] was 33.9 nM, the GI50 (MCF7) was 0.355 nM and the GI50 (SR) was 0.209 nM. The GI50 (SNB-19) was 4.57 nM, the GI50 (NCI-H226) was 275 nM and the GI50 (SK-MEL-28) was 0.617 nM. It also gave a GI50 [2] of 1.41 nM, a GI50 (KM-20L2) of 1.2 nM and a GI50 (NCI-H460) of 0.269 nM. The GI50 (HCT-15) was 4.07 nM, the GI50 (U-251) was 0.182 nM and the GI50 (NCI-H23) was 550 nM. For the same molecule, the GI50 (OVCAR-5) was 13.2 nM, the GI50 (EKVX) was 5.37 nM and the GI50 (OVCAR-8) was 60.3 nM. For the same molecule, the GI50 (HCT-116) was 0.692 nM, the GI50 (CCRF-CEM) was 0.309 nM and the GI50 (MOLT-4) was 0.204 nM. For the same molecule, the GI50 (SK-MEL-5) was 2.34 nM, the GI50 (ACHN) was 8.13 nM and the GI50 (XF498) was 0.724 nM. The GI50 (MDA-MB-231) was 1.2 nM, the GI50 (DU-145) was 53.7 nM and the GI50 (BT-549) was 0.759 nM. For the same molecule, the GI50 (RXF 393) was 0.1 nM, the GI50 (RPMI-8226) was 0.107 nM and the GI50 (MDA-N) was 1.86 nM. The GI50 (HT-29) was 2.82 nM, the GI50 (M19-MEL) was 617 nM and the GI50 (K562) was 0.617 nM. The GI50 (Malme-3M) was 8.13 nM, the GI50 (PC-3) was 0.288 nM and the GI50 [3] was 0.166 nM. It also gave a GI50 (HOP-92) of 0.661 nM, a GI50 (UACC-62) of 0.316 nM and a GI50 (T47D) of 245 nM. It also gave a GI50 (OVCAR-3) of 70.8 nM, a GI50 (M14) of 0.955 nM and a GI50 (SF-268) of 1.1 nM. It also gave a GI50 (SK-MEL-2) of 1.1 nM, a GI50 (DMS-273) of 0.11 nM and a GI50 (LOX IMVI) of 0.324 nM. The GI50 (CAKI-1) was 1.55 nM, the GI50 (A549) was 0.513 nM and the GI50 (Hs-578T) was 0.112 nM. It also gave a GI50 [4] of 0.331 nM, a GI50 (SNB-75) of 0.1 nM and a GI50 (NCI-H522) of 120 nM. It also gave a GI50 [5] of 0.17 nM, a GI50 [6] of 0.309 nM and a GI50 (SW-620) of 0.977 nM. It also gave a GI50 (SF-539) of 0.151 nM, a GI50 (NCI/ADR-RES) of 69.2 nM and a GI50 (SN12C) of 295 nM. It also gave a GI50 (KM12) of 1.86 nM, a GI50 (SF-295) of 0.123 nM and a GI50 (COLO 205) of 1.55 nM. It also gave a GI50 [7] of 0.355 nM, a GI50 (UACC-257) of 4.27 nM and a GI50 (SNB-78) of 0.776 nM. For the same molecule, the GI50 (NCI-H322M) was 91.2 nM, the GI50 (SK-OV-3) was 1.02 nM and the GI50 (DLD-1) was 41.7 nM. It also gave a GI50 [8] of 95.5 nM.

For `C[C@@H]1[C@]2(O[C@H]3C=C4[C@@H]5CC[C@H]6Cc7nc8c(nc7C[C@]6(C)[C@H]5C[C@@H](O)[C@]4(C)[C@]31O)C[C@@H]1CC[C@H]3C4=CC[C@@H]5[C@H](C)[C@@]6(OC[C@]45C(=O)C[C@]3(O)[C@@]1(C)C8)OC(C)(C)C[C@H]6O)O[C@](C)(CO)C[C@H]2O` [CEPHALOSTATIN 2], the GI50 (OVCAR-4) was 17 nM, the GI50 (IGROV-1) was 2.57 nM and the GI50 (HOP-62) was 0.105 nM. It also gave a GI50 (HOP-18) of 14.4 nM, a GI50 (UO-31) of 1.18 nM and a GI50 [1] of 20.4 nM. The GI50 (SR) was 0.135 nM, the GI50 (SNB-19) was 2.4 nM and the GI50 (NCI-H226) was 0.141 nM. The GI50 (SK-MEL-28) was 0.234 nM, the GI50 [2] was 0.339 nM and the GI50 (KM-20L2) was 0.661 nM. It also gave a GI50 (NCI-H460) of 0.126 nM, a GI50 (HCT-15) of 2.34 nM and a GI50 (U-251) of 0.112 nM. The GI50 (NCI-H23) was 0.708 nM, the GI50 (OVCAR-5) was 14.1 nM and the GI50 (EKVX) was 6.17 nM. The GI50 (OVCAR-8) was 200 nM, the GI50 (HCT-116) was 0.295 nM and the GI50 (CCRF-CEM) was 0.126 nM. It also gave a GI50 (MOLT-4) of 0.12 nM, a GI50 (SK-MEL-5) of 0.724 nM and a GI50 (ACHN) of 2.57 nM. For the same molecule, the GI50 (XF498) was 0.1 nM, the GI50 (RXF 393) was 0.1 nM and the GI50 (RPMI-8226) was 0.1 nM. The GI50 (HT-29) was 0.912 nM, the GI50 (M19-MEL) was 331 nM and the GI50 (Malme-3M) was 2.95 nM. For the same molecule, the GI50 [3] was 0.11 nM, the GI50 (HOP-92) was 0.105 nM and the GI50 (UACC-62) was 0.141 nM. The GI50 (OVCAR-3) was 347 nM, the GI50 (M14) was 0.219 nM and the GI50 (SF-268) was 0.195 nM. The GI50 (SK-MEL-2) was 0.288 nM, the GI50 (DMS-273) was 0.1 nM and the GI50 (LOX IMVI) was 0.151 nM. The GI50 (CAKI-1) was 0.575 nM, the GI50 (A549) was 0.295 nM and the GI50 [4] was 0.138 nM. The GI50 (SNB-75) was 0.1 nM, the GI50 (NCI-H522) was 0.794 nM and the GI50 [5] was 0.141 nM. It also gave a GI50 (SW-620) of 0.174 nM, a GI50 (SF-539) of 0.1 nM and a GI50 (SN12C) of 105 nM. It also gave a GI50 (KM12) of 0.371 nM, a GI50 (SF-295) of 0.1 nM and a GI50 (COLO 205) of 0.617 nM. For the same molecule, the GI50 [7] was 0.1 nM, the GI50 (UACC-257) was 0.912 nM and the GI50 (SNB-78) was 0.251 nM. The GI50 (NCI-H322M) was 28.2 nM, the GI50 (SK-OV-3) was 0.457 nM and the GI50 (DLD-1) was 70.8 nM. The GI50 [8] was 74.1 nM.
